Laboratory results reported in patent publication US20240294509A1, “PYRIDAZINONE COMPOUND AS PARP7 INHIBITOR” (Euregen Biopharma Co., Ltd., priority 2021, published 2024).

Experiments:
NCI-H1373 cells = assay: Inhibitory effect on the proliferation of NCI-H1373 cells (CellTiter-Glo); format: cell-based; settings: Homo sapiens, 144 h, 6 days treatment
Description: 1. Experimental Principle: NCI-H1373 cells are a type of lung adenocarcinoma cells that overexpress PARP7.
2. Experimental Materials: NCI-H1373 cells were obtained from Nanjing Cobioer Biosciences Co., Ltd. CellTiter-Glo® (cell viability chemiluminescent assay reagent) was purchased from Promega (Catalog No. G7571). RPMI-1640 medium was obtained from ATCC (Catalog No. 30-2001). RPMI-1640 medium, penicillin/streptomycin antibiotics were purchased from WISENT. Fetal bovine serum was obtained from Biosera. The Nivo multimode reader was procured from PerkinElmer.
3. Experimental Method: NCI-H1373 cells were seeded in a white 96-well plate with 80 μL of cell suspension per well, containing 3000 NCI-H1373 cells. The cell plate was incubated overnight in a carbon dioxide (CO2) incubator.
The test compounds were serially diluted 5-fold to the 9th concentration, ranging from 2 mmol/L to 5.12 nmol/L, for a duplicate assay. 78 μL of culture medium was added to the intermediate plate, and then, according to the corresponding positions, 2 μL of each gradient-diluted compound was transferred to the intermediate plate. After thorough mixing, 20 μL of the compound solution was transferred to the cell plate. The compound concentration range in the cell plate ranged from 10 μmol/L to 0.0256 nmol/L. The cell plate was incubated in a CO2 incubator for 6 days.
Another cell plate was prepared, and the signal values were read on the day of dosing to obtain the maximum value referred to as Max in the following equation for data analysis. 25 μL of cell viability chemiluminescent assay reagent was added to each well of this cell plate, and it was incubated at room temperature for 10 minutes to stabilize the luminescent signal. Readings were taken using a multimode reader.
After 6 days of treatment, 25 μL of cell viability chemiluminescent assay reagent was added to each well of the cell plate, and it was incubated at room temperature for 10 minutes to stabilize the luminescent signal. Readings were taken using a multimode reader.
The IC50 value was determined by four-parameter curve fitting (obtained by using the “log(inhibitor) vs. response—Variable slope” model in GraphPad Prism).

[1] = Pharmacokinetic properties in SD rats after single intravenous injection and oral administration; format: in vivo; settings: SD male rats
Description: 1. Test purpose: to determine the pharmacokinetic characteristics of some of the example compound of the present invention in SD rats after single intravenous injection(IV) and oral administration(PO) by LC-MS/MS method.
2. Test material: the test drug is self-made from the example compounds of the present invention; Positive control compound RBN2397 purchased from Shanghai BioChemPartner Biotechnology Co., Ltd. SD male rats were obtained from the Laboratory Animal Management Department of Shanghai Family Planning Research Institute. Animal production license number (SCXK (Shanghai) 2018-0006).
Preparation of 0.5% methyl cellulose: 5 g of methyl cellulose were weighed and dissolved in 1000 mL of purified water.
Preparation of oral formulation: A required amount of test compound was weighed and dissolved in 0.5% methyl cellulose solution to obtain a suspension or solution of 0.5 mg/mL or 1.0 mg/mL.
Preparation of intravenous injection formulation: A required amount of test compound was weighed, and dissolved in 0.5 mL of dimethyl sulfoxide to prepare a solution of 4 mg/mL. 0.25 mL of the above solution was added into 0.5 mL of polyethylene glycol 15 hydroxystearate (solutol) and 4.25 mL of physiological saline to obtain a solution of 0.2 mg/mL.
Administration: SD male rats were orally administered (PO) after fasting overnight, and fed 4 hours after administration.
Sample Collection: blood was collected through jugular vein or other suitable vein, and 0.2 mL of blood was collected at each time point. Samples were placed into tubes containing ethylenediamine tetraacetic acid dipotassium salt and kept on ice before centrifugation. Within 1 hour after blood collection, the blood samples were centrifuged at 2-8° C. and 6800 g for 6 minutes and stored at −80° C. The time point for blood collection was 0.083, 0.25, 0.5, 1, 2, 4, 8 and 24 hours after intravenous administration, and 0.25, 0.5, 1, 2, 4, 6, 8 and 24 hours after oral administration.
The intravenous dosage was 1 mg/kg, and the pharmacokinetic parameters for oral administration were standardized to a 1 mg/kg dose.

PARP7 = PARP7 (Homo sapiens (Human), UniProt Q7Z3E1); assay: biochemical
Description: (§1) Experimental Principle: The inhibitory effect of the test substance on the enzymatic activity of PARP1/7 is assessed by using an Enzyme-Linked Immunosorbent Assay (ELISA).
(§2) (1) Pre-coating: Add 100 μL of a PBS buffer (10 mM NaH2PO4, 10 mM Na2HPO4, 150 mM NaCl, pH 7.4) containing 20 g/mL of histone to each well of a 96-well plate, and incubate at 4° C. overnight.
(§3) (3) Add 5 μL of the test substance or solvent to each well.
(§4) (4) Add 20 μL of(PARP1 or PARP7 (50 ng/well), and incubate at 30° C. for 1 hour.
(§5) (5) Add 50 μL of streptavidin-HRP to the reaction mixture, and incubate at 30° C. for 30 minutes.
(§6) (6) Finally, add 100 μL of a citrate buffer containing H2O2 and luminol (0.1 M, pH 5.4), and measure the luminescent signal using a microplate reader (Molecular Devices SpectraMax M5).
(§7) (7) Calculate the inhibition rate of PARP1 or PARP7 enzyme activity as [(control group−treatment group)/control group]×10000. Fit the dose-response data with standard dilutions using Prism GraphPad software and calculate the concentration required to achieve 5000 inhibition of PARP1 or PARP7 enzyme activity (IC50).

PARP1 = PARP1 (Homo sapiens (Human), UniProt P09874); assay: biochemical
Description: as §1, §2, §3, §4, §5, §6, §7

[2] = rat, plasma, Intravenous injection, 1 mg/kg
[3] = rat, plasma, Oral gavage, standardized to a 1 mg/kg dose

Chain of PARP1 (P09874 whole entry): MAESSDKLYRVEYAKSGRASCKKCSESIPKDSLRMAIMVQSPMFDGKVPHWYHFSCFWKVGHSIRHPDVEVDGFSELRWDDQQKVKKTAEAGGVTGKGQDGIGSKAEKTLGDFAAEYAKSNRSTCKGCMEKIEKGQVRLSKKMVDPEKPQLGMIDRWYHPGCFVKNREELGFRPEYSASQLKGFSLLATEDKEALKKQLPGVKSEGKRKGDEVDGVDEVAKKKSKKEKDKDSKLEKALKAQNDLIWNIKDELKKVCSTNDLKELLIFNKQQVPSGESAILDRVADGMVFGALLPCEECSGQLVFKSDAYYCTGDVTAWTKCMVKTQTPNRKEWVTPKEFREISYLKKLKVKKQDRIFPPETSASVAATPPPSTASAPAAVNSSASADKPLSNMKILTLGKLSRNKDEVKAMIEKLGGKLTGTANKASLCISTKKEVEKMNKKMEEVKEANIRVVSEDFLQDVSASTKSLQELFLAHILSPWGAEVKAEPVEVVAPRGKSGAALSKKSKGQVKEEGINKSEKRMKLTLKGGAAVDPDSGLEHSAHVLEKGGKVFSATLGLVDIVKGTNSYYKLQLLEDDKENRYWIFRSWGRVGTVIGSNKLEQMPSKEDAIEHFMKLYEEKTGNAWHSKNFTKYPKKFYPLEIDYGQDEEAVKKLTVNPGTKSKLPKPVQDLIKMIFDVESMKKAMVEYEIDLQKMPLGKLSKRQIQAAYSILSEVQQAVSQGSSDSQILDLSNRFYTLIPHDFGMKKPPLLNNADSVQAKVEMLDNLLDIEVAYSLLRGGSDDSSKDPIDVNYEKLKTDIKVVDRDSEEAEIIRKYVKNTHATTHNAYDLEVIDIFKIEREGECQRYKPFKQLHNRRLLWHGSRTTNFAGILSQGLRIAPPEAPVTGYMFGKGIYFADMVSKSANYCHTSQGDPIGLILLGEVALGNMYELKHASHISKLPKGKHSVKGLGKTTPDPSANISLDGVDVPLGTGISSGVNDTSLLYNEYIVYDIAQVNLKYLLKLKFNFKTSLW
Chain of PARP7 (Q7Z3E1 whole entry): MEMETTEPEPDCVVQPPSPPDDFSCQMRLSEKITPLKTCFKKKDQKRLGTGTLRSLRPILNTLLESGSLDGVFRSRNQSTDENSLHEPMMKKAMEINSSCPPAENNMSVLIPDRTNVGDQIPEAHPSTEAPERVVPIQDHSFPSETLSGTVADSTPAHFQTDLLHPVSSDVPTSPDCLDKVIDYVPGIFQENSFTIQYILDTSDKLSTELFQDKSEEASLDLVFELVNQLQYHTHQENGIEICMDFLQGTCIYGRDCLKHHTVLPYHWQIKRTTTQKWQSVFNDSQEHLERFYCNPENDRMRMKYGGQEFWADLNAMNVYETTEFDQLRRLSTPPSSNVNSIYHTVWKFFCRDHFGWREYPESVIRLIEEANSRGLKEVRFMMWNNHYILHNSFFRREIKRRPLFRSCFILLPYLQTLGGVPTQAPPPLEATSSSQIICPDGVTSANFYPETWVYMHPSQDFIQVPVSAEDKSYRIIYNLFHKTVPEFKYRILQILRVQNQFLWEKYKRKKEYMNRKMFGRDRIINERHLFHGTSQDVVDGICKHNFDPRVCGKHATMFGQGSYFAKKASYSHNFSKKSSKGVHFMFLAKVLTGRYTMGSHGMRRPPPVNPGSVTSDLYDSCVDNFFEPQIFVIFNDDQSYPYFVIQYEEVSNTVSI

O=C(CC[C@@H]1C[C@@H](Oc2ccccc2)CN1c1cc(C(F)(F)F)c(=O)[nH]n1)N1CCN(c2ncc(C(F)(F)F)cn2)CC1 [Compound 21]
IC50 (NCI-H1373 cells): 73.6 nM | F ([1]; Oral gavage, oral bioavailability): 21.18% | AUC(0-inf) [1, 2]: 482 ng·h/mL | Cmax [1, 2]: 1210 ng/mL | clearance [1, 2]: 36.9 mL/min/kg | half-life [1, 2]: 30.6 min | AUC(0-inf) [1, 3]: 111 ng·h/mL | Cmax [1, 3]: 40.2 ng/mL | IC50 (PARP7): 3.4 nM | IC50 (PARP1): 816 nM
